{
  "source": "patent US9796711B2",
  "about": "“Substituted pyrazolo[3,4-b]pyridin-6-carboxylic acids and method of use” (AbbVie S.àr.l., priority 2015, dated 2017)",
  "key": {"ΔF508-CFTR [1]": {"biological_target": "T1, ΔF508-CFTR (Homo sapiens, UniProt P13569, DEL508-508)", "T1 construct": "host or cells: CFBE41o-, doxycycline-inducible", "T1 sequence (P13569 with tags, fused parts or gaps DEL508-508)": "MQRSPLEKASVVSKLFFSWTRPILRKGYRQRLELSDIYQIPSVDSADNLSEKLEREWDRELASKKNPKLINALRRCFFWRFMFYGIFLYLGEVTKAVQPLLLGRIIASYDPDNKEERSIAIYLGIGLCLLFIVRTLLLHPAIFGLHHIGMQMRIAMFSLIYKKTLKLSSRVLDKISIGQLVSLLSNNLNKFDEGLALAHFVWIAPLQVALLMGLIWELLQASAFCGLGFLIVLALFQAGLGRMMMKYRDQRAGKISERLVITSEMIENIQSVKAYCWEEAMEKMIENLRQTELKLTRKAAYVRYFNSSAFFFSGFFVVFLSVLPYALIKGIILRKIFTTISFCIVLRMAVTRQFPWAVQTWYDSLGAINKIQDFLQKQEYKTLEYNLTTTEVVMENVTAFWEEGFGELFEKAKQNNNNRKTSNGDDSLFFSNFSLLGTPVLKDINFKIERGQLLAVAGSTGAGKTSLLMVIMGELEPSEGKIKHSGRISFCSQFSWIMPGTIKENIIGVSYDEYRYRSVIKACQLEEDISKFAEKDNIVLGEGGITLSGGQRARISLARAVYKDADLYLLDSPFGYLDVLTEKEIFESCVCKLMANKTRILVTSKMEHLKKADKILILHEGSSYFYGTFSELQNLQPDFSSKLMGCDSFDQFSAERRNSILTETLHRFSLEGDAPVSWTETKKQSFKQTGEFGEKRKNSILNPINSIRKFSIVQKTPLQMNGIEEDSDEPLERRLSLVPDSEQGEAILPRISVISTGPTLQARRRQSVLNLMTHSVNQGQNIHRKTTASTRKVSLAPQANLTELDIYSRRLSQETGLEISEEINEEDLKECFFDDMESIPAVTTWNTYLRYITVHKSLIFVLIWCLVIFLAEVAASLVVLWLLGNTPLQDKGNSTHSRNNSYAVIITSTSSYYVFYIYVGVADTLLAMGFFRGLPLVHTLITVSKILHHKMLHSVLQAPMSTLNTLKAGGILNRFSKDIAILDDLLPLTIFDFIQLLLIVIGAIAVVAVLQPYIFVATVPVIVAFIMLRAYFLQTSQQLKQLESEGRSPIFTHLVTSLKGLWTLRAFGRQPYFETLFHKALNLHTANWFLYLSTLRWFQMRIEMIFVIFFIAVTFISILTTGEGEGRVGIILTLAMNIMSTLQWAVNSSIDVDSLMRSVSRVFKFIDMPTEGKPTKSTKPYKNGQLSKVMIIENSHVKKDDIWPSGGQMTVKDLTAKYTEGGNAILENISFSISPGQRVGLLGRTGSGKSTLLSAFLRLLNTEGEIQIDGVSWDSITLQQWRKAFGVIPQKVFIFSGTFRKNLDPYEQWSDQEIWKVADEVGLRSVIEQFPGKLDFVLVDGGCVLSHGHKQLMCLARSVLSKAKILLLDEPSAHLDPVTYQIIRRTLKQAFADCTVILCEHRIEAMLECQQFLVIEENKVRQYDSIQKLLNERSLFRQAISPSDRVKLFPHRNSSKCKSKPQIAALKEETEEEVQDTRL", "assay": "CFTR cell surface levels using HRP-tagged ΔF508-CFTR expressing CFBE cells, in the presence of a co-corrector", "type": "cell-based", "conditions": "HRP-tagged ΔF508-CFTR expressing CFBE cells, in the presence of 3 μM co-corrector; for EC50: read-out: EC50", "in_short": "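Cells were seeded with 0.5 μg/mL doxycycline and held 68 h at 37 °C. Test compounds plus 3 μM co-corrector (final 0.1% DMSO) were then added for 20 h at 33 °C. Washed cells received HRP substrate, and luminescence was normalized between DMSO and 3 μM co-corrector controls.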"}, "ΔF508-CFTR [2]": {"biological_target": "T1, ΔF508-CFTR", "assay": "CFTR cell surface levels using HRP-tagged ΔF508-CFTR expressing CFBE cells, intrinsic corrector capacity", "type": "cell-based", "conditions": "HRP-tagged ΔF508-CFTR CFBE41o- cells, compounds alone (intrinsic corrector capacity), 20 hours at 33° C.; for % Activation: positive control 3 μM corrector; for EC50: read-out: EC50", "in_short": "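Here the cells express ΔF508-CFTR with horseradish peroxidase inserted in extracellular loop 4, so only rescued channel at the surface gives luminescent signal. Compounds act on their own, 20 h at the reduced temperature of 33 °C; values are percent activity relative to DMSO and a 3 μM corrector.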"}},
  "data": [
    {"smiles": "CC(C)c1nn(C2CCCOC2)c2nc(C(=O)O)cc(-c3ccc(N4CCC(C#N)CC4)nc3)c12", "note": "(stereo not drawn) [compound 365, 4-[6-(4-cyanopiperidin-1-yl)pyridin-3-yl]-1-(oxan-3-yl)-3-(propan-2-yl)-1H-pyrazolo[3,4-b]pyridine-6-carboxylic acid]", "values": [
      {"measurement": "% Activation", "setting": "ΔF508-CFTR [1]", "result": 278.05, "unit": "%"},
      {"measurement": "EC50", "setting": "ΔF508-CFTR [1]", "result": 1540, "unit": "nM"},
      {"measurement": "% Activation", "setting": "ΔF508-CFTR [2]", "result": 147.55, "unit": "%"},
      {"measurement": "EC50", "setting": "ΔF508-CFTR [2]", "result": 2550, "unit": "nM"}
    ]},
    {"smiles": "CC(C)c1nn(C2CCCCC2)c2nc(C(=O)O)cc(-c3cnc(N4CCCC(C#N)C4)nc3)c12", "note": "(stereo not drawn) [compound 366, 4-[2-(3-cyanopiperidin-1-yl)pyrimidin-5-yl]-1-cyclohexyl-3-(propan-2-yl)-1H-pyrazolo[3,4-b]pyridine-6-carboxylic acid]", "values": [
      {"measurement": "% Activation", "setting": "ΔF508-CFTR [1]", "result": 385.85, "unit": "%"},
      {"measurement": "EC50", "setting": "ΔF508-CFTR [1]", "result": 602, "unit": "nM"},
      {"measurement": "% Activation", "setting": "ΔF508-CFTR [2]", "result": 199.1, "unit": "%"},
      {"measurement": "EC50", "setting": "ΔF508-CFTR [2]", "result": 436, "unit": "nM"}
    ]},
    {"smiles": "O=C(O)c1cc(N2CCC(OCC(=O)N3CCCC3)CC2)c2c(C3CCC3)nn(-c3ccccc3)c2n1", "note": "[compound 367, 3-cyclobutyl-4-{4-[2-oxo-2-(pyrrolidin-1-yl)ethoxy]piperidin-1-yl}-1-phenyl-1H-pyrazolo[3,4-b]pyridine-6-carboxylic acid]", "values": [
      {"measurement": "% Activation", "setting": "ΔF508-CFTR [1]", "result": 406.35, "unit": "%"},
      {"measurement": "EC50", "setting": "ΔF508-CFTR [1]", "result": 669, "unit": "nM"},
      {"measurement": "% Activation", "setting": "ΔF508-CFTR [2]", "result": 239.55, "unit": "%"},
      {"measurement": "EC50", "setting": "ΔF508-CFTR [2]", "result": 1010, "unit": "nM"}
    ]},
    {"smiles": "COCC1CCN(c2cc(C(=O)O)nc3c2c(C(C)C)nn3-c2cccc(N(C)C)c2)CC1", "note": "[compound 368, 1-[3-(dimethylamino)phenyl]-4-[4-(methoxymethyl)piperidin-1-yl]-3-(propan-2-yl)-1H-pyrazolo[3,4-b]pyridine-6-carboxylic acid]", "values": [
      {"measurement": "% Activation", "setting": "ΔF508-CFTR [1]", "result": 515.5, "unit": "%"},
      {"measurement": "EC50", "setting": "ΔF508-CFTR [1]", "result": 290, "unit": "nM"},
      {"measurement": "% Activation", "setting": "ΔF508-CFTR [2]", "result": 357.3, "unit": "%"},
      {"measurement": "EC50", "setting": "ΔF508-CFTR [2]", "result": 521, "unit": "nM"}
    ]},
    {"smiles": "CC(C)c1nn(-c2ccnc(N3CCCC3)c2)c2nc(C(=O)O)cc(-c3ccc(N4CCC(C#N)CC4)nc3)c12", "note": "[compound 369, 4-[6-(4-cyanopiperidin-1-yl)pyridin-3-yl]-3-(propan-2-yl)-1-[2-(pyrrolidin-1-yl)pyridin-4-yl]-1H-pyrazolo[3,4-b]pyridine-6-carboxylic acid]", "values": [
      {"measurement": "% Activation", "setting": "ΔF508-CFTR [1]", "result": 389.2, "unit": "%"},
      {"measurement": "EC50", "setting": "ΔF508-CFTR [1]", "result": 471, "unit": "nM"},
      {"measurement": "% Activation", "setting": "ΔF508-CFTR [2]", "result": 251.6, "unit": "%"},
      {"measurement": "EC50", "setting": "ΔF508-CFTR [2]", "result": 843, "unit": "nM"}
    ]},
    {"smiles": "CC(C)c1nn(C2CCCCC2)c2nc(C(=O)O)cc(-c3ccnn3C)c12", "note": "[compound 370, 1-cyclohexyl-4-(1-methyl-1H-pyrazol-5-yl)-3-(propan-2-yl)-1H-pyrazolo[3,4-b]pyridine-6-carboxylic acid]", "values": [
      {"measurement": "% Activation", "setting": "ΔF508-CFTR [1]", "result": 133, "unit": "%"},
      {"measurement": "EC50", "setting": "ΔF508-CFTR [1]", "result": "> 10000", "unit": "nM"},
      {"measurement": "% Activation", "setting": "ΔF508-CFTR [2]", "result": 19.18, "unit": "%"},
      {"measurement": "EC50", "setting": "ΔF508-CFTR [2]", "result": "> 10000", "unit": "nM"}
    ]},
    {"smiles": "CC(C)c1nn(C2CCCCC2)c2nc(C(=O)O)cc(C3=CCN(C(=O)OC(C)(C)C)CC3)c12", "note": "[compound 371, 4-[1-(tert-butoxycarbonyl)-1,2,3,6-tetrahydropyridin-4-yl]-1-cyclohexyl-3-(propan-2-yl)-1H-pyrazolo[3,4-b]pyridine-6-carboxylic acid]", "values": [
      {"measurement": "% Activation", "setting": "ΔF508-CFTR [1]", "result": 283.6, "unit": "%"},
      {"measurement": "EC50", "setting": "ΔF508-CFTR [1]", "result": 1100, "unit": "nM"},
      {"measurement": "% Activation", "setting": "ΔF508-CFTR [2]", "result": 116.35, "unit": "%"},
      {"measurement": "EC50", "setting": "ΔF508-CFTR [2]", "result": 1310, "unit": "nM"}
    ]},
    {"smiles": "CC(C)OC1CCN(c2cc(C(=O)O)nc3c2c(C2CCC2)nn3-c2ccccc2)CC1", "note": "[compound 372, 3-cyclobutyl-1-phenyl-4-{4-[(propan-2-yl)oxy]piperidin-1-yl}-1H-pyrazolo[3,4-b]pyridine-6-carboxylic acid]", "values": [
      {"measurement": "% Activation", "setting": "ΔF508-CFTR [1]", "result": 388.6, "unit": "%"},
      {"measurement": "EC50", "setting": "ΔF508-CFTR [1]", "result": 126, "unit": "nM"},
      {"measurement": "% Activation", "setting": "ΔF508-CFTR [2]", "result": 179, "unit": "%"},
      {"measurement": "EC50", "setting": "ΔF508-CFTR [2]", "result": 262, "unit": "nM"}
    ]},
    {"smiles": "COCC1CCCN(c2cc(C(=O)O)nc3c2c(C2CCC2)nn3-c2ccccc2)C1", "note": "(stereo not drawn) [compound 373, 3-cyclobutyl-4-[3-(methoxymethyl)piperidin-1-yl]-1-phenyl-1H-pyrazolo[3,4-b]pyridine-6-carboxylic acid]", "values": [
      {"measurement": "% Activation", "setting": "ΔF508-CFTR [1]", "result": 306.9, "unit": "%"},
      {"measurement": "EC50", "setting": "ΔF508-CFTR [1]", "result": 304, "unit": "nM"},
      {"measurement": "% Activation", "setting": "ΔF508-CFTR [2]", "result": 126.3, "unit": "%"},
      {"measurement": "EC50", "setting": "ΔF508-CFTR [2]", "result": 469, "unit": "nM"}
    ]}
  ]
}
